According to article PMC7501296, “Rapid and direct control of target protein levels with VHL-recruiting dTAG molecules” (Nature Communications, 2020):
Where “and” joins values, the source holds several entries; their conditions need not be identical. Equal values may be shown once.

Columns and labels:
Type in all cases: cell-based
FKBP12^F36V-Nluc = target: T1, FKBP12^F36V-Nluc (Homo sapiens, UniProt P62942, F37V); test: FKBP12F36V-Nluc dual luciferase assay (293FT); settings: 293FT FKBP12F36V-Nluc, 24 h
T1 construct: expressed in transfected cells; host or cells: 293FT
T1 sequence (P62942 2-108 F37V limits assumed): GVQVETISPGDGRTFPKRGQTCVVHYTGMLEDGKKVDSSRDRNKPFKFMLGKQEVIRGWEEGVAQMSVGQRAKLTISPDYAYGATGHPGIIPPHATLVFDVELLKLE
Method in brief: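 293FT cells expressing FKBP12^WT-Nluc or FKBP12^F36V-Nluc with Fluc were treated with compound for 24 h at 37 °C. Fluc, then Nluc, luminescence was read with Dual-Glo reagents. Values are DMSO-normalised Nluc/Fluc ratios.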

[1] = test system: PATU-8902 LACZ-FKBP12^F36V clone; test: Antiproliferation, PATU-8902 LACZ-FKBP12F36V clone, 3D-spheroid (CellTiter-Glo)
Method in brief: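 Viability of cells grown as ultra-low adherent 3D-spheroids was determined with the CellTiter-Glo reagent (Promega). Luminescence was read on either an Envision 2104 plate reader (PerkinElmer) or a Fluostar Omega Reader (BMG Labtech). The resulting data were analyzed with GraphPad PRISM v8.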

[2] = test system: PATU-8902 FKBP12^F36V-KRAS^G12V; KRAS^-/- clone; test: Antiproliferation, PATU-8902 FKBP12F36V-KRASG12V; KRAS-/- clone, 3D-spheroid (CellTiter-Glo); settings: FKBP12F36V-KRASG12V, KRAS-/-, 3D-spheroid, replicate values
Method in brief: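 Viability of cells grown as ultra-low adherent 3D-spheroids was determined with CellTiter-Glo (Promega). Luminescence readings were taken on an Envision 2104 plate reader (PerkinElmer) and a Fluostar Omega Reader (BMG Labtech), and the resulting data were processed in GraphPad PRISM v8 to assess effects on cell proliferation.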

[3] = test system: PATU-8902 LACZ-FKBP12^F36V clone; test: Antiproliferation, PATU-8902 LACZ-FKBP12F36V clone, 2D-monolayer (CellTiter-Glo)
Method in brief: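 Viability of cells grown as 2D-adherent monolayers was determined with the CellTiter-Glo luminescent reagent (Promega). Luminescence signals were read on either an Envision 2104 plate reader (PerkinElmer) or a Fluostar Omega Reader (BMG Labtech), and the resulting data were processed and analyzed in GraphPad PRISM v8 software.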

[4] = test system: PATU-8902 FKBP12^F36V-KRAS^G12V; KRAS^-/- clone; test: Antiproliferation, PATU-8902 FKBP12F36V-KRASG12V; KRAS-/- clone, 2D-monolayer (CellTiter-Glo)
[5] = log10[compound] (M) -5.69897, replicate values
[6] = log10[compound] (M) -6.19897, replicate values
[7] = log10[compound] (M) -6.69897, replicate values
[8] = log10[compound] (M) -7.19897, replicate values
[9] = log10[compound] (M) -7.69897, replicate values
[10] = log10[compound] (M) -8.19897, replicate values
[11] = log10[compound] (M) -8.69897, replicate values
[12] = log10[compound] (M) -9.19897, replicate values
[13] = log10[compound] (M) -9.69897, replicate values
[14] = log10[compound] (M) -10.199, replicate values

SMILES: CC[C@H](C(=O)N1CCCC[C@H]1C(=O)O[C@H](CCc1ccc(OC)c(OC)c1)c1ccccc1OCC(=O)NCCCCCCOc1cccc2c1C(=O)N(C1CCC(=O)NC1=O)C2=O)c1cc(OC)c(OC)c(OC)c1 (some centres unmarked) [dTAG-13]
- DMSO-normalized ratio of Nluc/Fluc signal (FKBP12^F36V-Nluc; log10[compound] (M) -5.30103, single replicates): 16.9532 and 13.2908 and 14.9671 and 13.7454
- DMSO-normalized ratio of Nluc/Fluc signal (FKBP12^F36V-Nluc; log10[compound] (M) -5.80103, single replicates): 7.24 and 7.457 and 10.3426 and 8.644
- DMSO-normalized ratio of Nluc/Fluc signal (FKBP12^F36V-Nluc; log10[compound] (M) -6.30103, single replicates): 8.366 and 8.818 and 6.862 and 6.126
- DMSO-normalized ratio of Nluc/Fluc signal (FKBP12^F36V-Nluc; log10[compound] (M) -6.80103, single replicates): 7.33 and 5.168 and 6.329 and 6.447
- DMSO-normalized ratio of Nluc/Fluc signal (FKBP12^F36V-Nluc; log10[compound] (M) -7.30103, single replicates): 10.0232 and 16.06 and 10.9144 and 8.614
- DMSO-normalized ratio of Nluc/Fluc signal (FKBP12^F36V-Nluc; log10[compound] (M) -7.80103, single replicates): 17.0708 and 14.82 and 12.6407 and 10.0196
- DMSO-normalized ratio of Nluc/Fluc signal (FKBP12^F36V-Nluc; log10[compound] (M) -8.30103, single replicates): 27.5948 and 22.2337 and 28.8782 and 22.7323
- DMSO-normalized ratio of Nluc/Fluc signal (FKBP12^F36V-Nluc; log10[compound] (M) -8.80103, single replicates): 41.1668 and 39.5241 and 40.8834 and 34.8862
- DMSO-normalized ratio of Nluc/Fluc signal (FKBP12^F36V-Nluc; log10[compound] (M) -9.30103, single replicates): 85.0231 and 74.0396 and 80.0349 and 60.0307
- DMSO-normalized ratio of Nluc/Fluc signal (FKBP12^F36V-Nluc; log10[compound] (M) -9.80103, single replicates): 71.5411 and 59.8417 and 77.3242 and 60.4301
- DMSO-normalized antiproliferation [1, 5]: 83.5347 and 77.755 and 106.784 and 100.802
- DMSO-normalized antiproliferation [1, 6]: 108.447 and 95.2018 and 93.9194 and 111.801
- DMSO-normalized antiproliferation [1, 7]: 105.932 and 113.702 and 105.116 and 107.515
- DMSO-normalized antiproliferation [1, 8]: 104.318 and 154.981 and 104.434 and 95.3632
- DMSO-normalized antiproliferation [1, 9]: 98.1432 and 118.54 and 142.668 and 106.77
- DMSO-normalized antiproliferation [1, 10]: 105.712 and 98.6185 and 105.909 and 92.2738
- DMSO-normalized antiproliferation [1, 11]: 108.958 and 119.361 and 97.2958 and 103.25
- DMSO-normalized antiproliferation [1, 12]: 89.1127 and 99.6498 and 108.86 and 111.989
- DMSO-normalized antiproliferation [1, 13]: 97.9056 and 108.178 and 110.59 and 112.891
- DMSO-normalized antiproliferation [1, 14]: 91.8389 and 92.6594 and 105.927 and 94.166
- DMSO-normalized antiproliferation ([2]; log10[compound] (M) -5.69897): 12.7187 and 7.467 and 16.3605 and 9.962
- DMSO-normalized antiproliferation ([2]; log10[compound] (M) -6.19897): 11.9335 and 12.0003 and 12.0114 and 13.9827
- DMSO-normalized antiproliferation ([2]; log10[compound] (M) -6.69897): 14.0106 and 15.4027 and 13.0027 and 15.9484
- DMSO-normalized antiproliferation ([2]; log10[compound] (M) -7.19897): 14.0384 and 16.4385 and 16.9619 and 11.7776
- DMSO-normalized antiproliferation ([2]; log10[compound] (M) -7.69897): 14.9517 and 15.5419 and 18.3931 and 15.5976
- DMSO-normalized antiproliferation ([2]; log10[compound] (M) -8.19897): 24.6577 and 23.0874 and 23.2266 and 22.4971
- DMSO-normalized antiproliferation ([2]; log10[compound] (M) -8.69897): 42.8837 and 45.8128 and 51.5651 and 55.5467
- DMSO-normalized antiproliferation ([2]; log10[compound] (M) -9.19897): 69.8747 and 70.4761 and 56.6493 and 74.3184
- DMSO-normalized antiproliferation ([2]; log10[compound] (M) -9.69897): 76.2117 and 76.4178 and 69.3902 and 68.6162
- DMSO-normalized antiproliferation ([2]; log10[compound] (M) -10.199): 73.2492 and 74.079 and 68.7888 and 65.637
- DMSO-normalized antiproliferation [3, 5]: 79.0923 and 75.109 and 80.3774 and 113.638
- DMSO-normalized antiproliferation [3, 6]: 118.691 and 93.7383 and 99.9076 and 98.4249
- DMSO-normalized antiproliferation [3, 7]: 98.3156 and 96.4487 and 164.194 and 141.704
- DMSO-normalized antiproliferation [3, 8]: 94.7264 and 123.324 and 123.729 and 139.928
- DMSO-normalized antiproliferation [3, 9]: 115.53 and 113.276 and 121.811 and 92.6376
- DMSO-normalized antiproliferation [3, 10]: 99.0586 and 98.4337 and 106.76 and 114.872
- DMSO-normalized antiproliferation [3, 11]: 84.0085 and 109.147 and 95.5423 and 106.301
- DMSO-normalized antiproliferation [3, 12]: 117.815 and 105.751 and 92.5029 and 116.86
- DMSO-normalized antiproliferation [3, 13]: 127.696 and 110.786 and 93.8321 and 122.663
- DMSO-normalized antiproliferation [3, 14]: 105.1 and 122.023 and 107.287 and 98.2283
- DMSO-normalized antiproliferation [4, 5]: 10.9257 and 6.898 and 8.446 and 8.371
- DMSO-normalized antiproliferation [4, 6]: 11.932 and 10.4461 and 13.2552 and 12.7525
- DMSO-normalized antiproliferation [4, 7]: 9.655 and 9.596 and 10.3089 and 13.0861
- DMSO-normalized antiproliferation [4, 8]: 15.4438 and 14.4907 and 17.4502 and 15.1305
- DMSO-normalized antiproliferation [4, 9]: 47.914 and 33.2029 and 20.7399 and 31.0479
- DMSO-normalized antiproliferation [4, 10]: 58.9433 and 77.5971 and 44.7261 and 57.0103
- DMSO-normalized antiproliferation [4, 11]: 103.967 and 74.9703 and 94.8172 and 78.6857
- DMSO-normalized antiproliferation [4, 12]: 94.4313 and 115.825 and 99.9239 and 85.5403
- DMSO-normalized antiproliferation [4, 13]: 101.606 and 85.9324 and 94.5986 and 110.248
- DMSO-normalized antiproliferation [4, 14]: 88.9654 and 100.345 and 66.0988 and 85.3394
